Measurements from patent US20240132513A1, “BENZAZEPINE DERIVATIVES, COMPOSITIONS, AND METHODS FOR TREATING COGNITIVE IMPAIRMENT” (AGENEBIO, INC., priority 2022, published 2024).
Where two headings read alike, the source gives them in different places.

What was measured:
α5β3γ2 GABAA R = α5β3γ2 GABAA R (Homo sapiens, UniProt P18507+P31644); test: Binding activity on GABAA R: inhibition of [3H]Ro15-1788 binding, α5 containing receptor
Summary of the method: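 Displacement of [3H]Ro15-1788 (flumazenil) measured at 4 °C over 1 h using 0.2 mg/ml membrane protein from Ltk cells carrying α5β3γ2 GABAA receptors, expression induced with 0.5 μM dexamethasone for 1 day; buffer pH 7.4 KH2PO4/EDTA/KCl. 10 μM diazepam defined nonspecific binding; filter-trapped radioactivity counted, in triplicate.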

GABAA R (α5β2γ2) = biological target: T1, GABAA R (α5β2γ2) (Homo sapiens, UniProt P18507+P31644); test: Positive allosteric modulator activity: potentiation of EC20 GABA current in oocytes; format: cell-based
T1 construct: expressed in transfected cells
Procedure: On day 1, 1 ng/32 nL of GABAA α5β2γ2 cDNA was injected into one oocyte. Test starts on day 2. The cDNA injected to the oocytes was a mix of alpha, beta and gamma, their ratio is 1:1:10 (by weight) and the total weight of the mixed 3 subunits to be injected in one oocyte was 1 ng in 32 nl volume. The injected oocytes can also be tested on day 3. In such case, the cDNA amount injected to the oocytes should be reduced by 20%.
Compounds of the present disclosure were tested using the following procedures.
8 oocytes were placed in 8 chambers of OpusXpress and superfused with Modified Barth's Saline (MBS) at 3 mL/min. Glass electrodes back-filled with 3M KCl (0.5-3 megaohms) were used. Membrane potential of oocytes was voltage-clamped at −60 mV. • 2).
Control Test (Diazepam or Methyl 3,5-Diphenylpyridazine-4-Carboxylate) • 1). New oocytes was used to run new test. • 2). […] Oocytes were washed with MBS for 5-10 min. • 4). […] Itest was divided by IGABA to obtain potentiation (%).
Test Compounds at Multiple Doses • 1). Repeat the above steps 1), 2) and 3) in the control test. • 2). […] Divide Itest by IGABA to obtain potentiation (%). • 3). Discard all tested oocytes, new oocytes were used and the above steps 1) and 2) were repeated to test second concentration of the same compound. Each oocyte was used for only one concentration test for a single test compound. The steps were repeated for other test compounds.

[1] = ranges of the column heads, [3H]Ro15-1788, Ltk cell membranes
[2] = read-out: GABA α5 Functional Data: potentiation
[3] = read-out: GABA α5 Functional Data: potentiation, @ 100 nM, EC20 GABA, ranges of the column heads

α5β3γ2 GABAA R, sequence (P31644 32-462): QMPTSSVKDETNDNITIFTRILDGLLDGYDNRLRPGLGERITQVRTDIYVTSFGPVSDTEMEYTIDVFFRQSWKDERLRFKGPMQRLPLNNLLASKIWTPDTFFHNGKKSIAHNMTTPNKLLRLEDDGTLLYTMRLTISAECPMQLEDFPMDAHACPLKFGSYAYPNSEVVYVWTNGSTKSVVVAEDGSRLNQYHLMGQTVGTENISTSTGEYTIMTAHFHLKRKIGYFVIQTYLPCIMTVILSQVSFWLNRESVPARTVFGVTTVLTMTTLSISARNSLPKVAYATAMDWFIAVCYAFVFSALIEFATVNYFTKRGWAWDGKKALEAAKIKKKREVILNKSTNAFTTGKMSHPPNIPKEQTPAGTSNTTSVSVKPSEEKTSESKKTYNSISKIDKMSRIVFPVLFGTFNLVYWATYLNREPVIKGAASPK
α5β3γ2 GABAA R, sequence (P28472 26-473 partner): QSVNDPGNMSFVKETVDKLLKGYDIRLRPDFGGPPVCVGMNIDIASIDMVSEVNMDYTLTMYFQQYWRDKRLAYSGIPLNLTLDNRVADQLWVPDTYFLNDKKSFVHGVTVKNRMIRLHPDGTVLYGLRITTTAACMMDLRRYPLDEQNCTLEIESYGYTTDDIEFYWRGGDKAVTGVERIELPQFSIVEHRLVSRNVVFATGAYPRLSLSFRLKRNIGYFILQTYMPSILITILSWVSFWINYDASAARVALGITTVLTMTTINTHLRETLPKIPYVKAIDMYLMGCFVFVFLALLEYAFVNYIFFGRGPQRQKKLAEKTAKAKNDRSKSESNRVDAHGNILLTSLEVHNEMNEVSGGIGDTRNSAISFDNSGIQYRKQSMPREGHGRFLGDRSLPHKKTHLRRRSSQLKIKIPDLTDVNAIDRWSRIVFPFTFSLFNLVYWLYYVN
α5β3γ2 GABAA R, sequence (P18507 40-475): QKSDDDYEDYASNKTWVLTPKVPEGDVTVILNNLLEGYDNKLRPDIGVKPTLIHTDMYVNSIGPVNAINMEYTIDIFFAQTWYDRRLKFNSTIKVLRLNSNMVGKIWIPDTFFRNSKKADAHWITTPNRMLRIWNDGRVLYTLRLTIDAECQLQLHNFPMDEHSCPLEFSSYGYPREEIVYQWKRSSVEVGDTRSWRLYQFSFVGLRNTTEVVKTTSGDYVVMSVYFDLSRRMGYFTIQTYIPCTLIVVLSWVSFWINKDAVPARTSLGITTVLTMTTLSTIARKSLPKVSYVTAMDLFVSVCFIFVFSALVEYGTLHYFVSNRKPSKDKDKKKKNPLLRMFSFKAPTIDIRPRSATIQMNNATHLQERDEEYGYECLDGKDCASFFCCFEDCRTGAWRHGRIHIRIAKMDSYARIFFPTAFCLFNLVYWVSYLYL
T1 sequence (P31644 32-462): as the sequence (P31644 32-462) above
T1 sequence (P47870 25-512 partner limits assumed): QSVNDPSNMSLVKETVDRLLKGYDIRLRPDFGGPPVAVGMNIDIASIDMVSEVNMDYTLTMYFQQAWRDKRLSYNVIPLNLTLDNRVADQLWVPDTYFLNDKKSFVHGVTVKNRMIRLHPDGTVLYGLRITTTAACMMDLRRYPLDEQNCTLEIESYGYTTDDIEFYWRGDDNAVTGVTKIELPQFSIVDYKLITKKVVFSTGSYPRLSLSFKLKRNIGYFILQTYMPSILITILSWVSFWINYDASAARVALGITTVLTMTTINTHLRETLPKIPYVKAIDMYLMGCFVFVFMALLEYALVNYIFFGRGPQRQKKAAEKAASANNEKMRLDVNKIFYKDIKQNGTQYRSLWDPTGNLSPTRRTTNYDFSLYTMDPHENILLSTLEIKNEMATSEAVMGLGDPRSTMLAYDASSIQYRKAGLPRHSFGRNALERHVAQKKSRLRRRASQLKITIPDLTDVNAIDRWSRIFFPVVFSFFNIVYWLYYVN
T1 sequence (P18507 40-475): as the sequence (P18507 40-475) above

| Ki (α5β3γ2 GABAA R; [1]) [nM] | activation at 0.1 µM (GABAA R (α5β2γ2); [2]) [%] | SMILES | Ki (α5β3γ2 GABAA R) [nM] | activation at 0.1 µM (GABAA R (α5β2γ2); [3]) [%] |
| --- | --- | --- | --- | --- |
| < 100 | 20 to 50 | COc1ccc2c(c1)-c1nn(C)cc1Cc1c(-c3noc(C4CC4)n3)ncn1-2 [Compound 132] |  |  |
| < 100 | 20 to 50 | CCn1cc2c(n1)-c1cc(Cl)ccc1-n1cnc(-c3nc(C4CC4)no3)c1C2 [Compound 133] |  |  |
|  |  | Cn1cc2c(n1)-c1cc(Cl)ccc1-n1cnc(-c3nc(C4CCOC4)no3)c1C2 (stereo not shown) [Compound 134] | < 100 | 20 to 50 |
|  |  | Clc1ccc2c(c1)-c1nn(Cc3ccccn3)cc1Cc1c(-c3nc(C4CC4)no3)ncn1-2 [Compound 135] | < 100 | 5 to 20 |
|  |  | COc1ccc2c(c1)-c1nn(C)cc1Cc1c(-c3noc(C4CCOC4)n3)ncn1-2 (stereo not shown) [Compound 136] | < 100 | 20 to 50 |
|  |  | CCOCc1nc(-c2ncn3c2Cc2cn(C)nc2-c2cc(OC)ccc2-3)no1 [Compound 137] | < 100 | 20 to 50 |
|  |  | CC(C)c1noc(-c2ncn3c2Cc2cn(C(C)C)nc2-c2cc(Cl)ccc2-3)n1 [Compound 138] | < 100 | 20 to 50 |
| < 100 | 20 to 50 | CCn1ncc2c1-c1cc(Cl)ccc1-n1cnc(-c3nc(C4CC4)no3)c1C2 [Compound 139] |  |  |
|  |  | Cc1nc(-c2ncn3c2Cc2cn(C)nc2-c2cc(Cl)ccc2-3)no1 [Compound 140] | < 100 | 5 to 20 |
|  |  | CC(C)c1nc(-c2ncn3c2Cc2cn(C)nc2-c2cc(Cl)ccc2-3)no1 [Compound 141] | < 100 | 20 to 50 |
|  |  | Cn1cc2c(n1)-c1cc(Cl)ccc1-n1cnc(-c3noc(C4CC4)n3)c1C2 [Compound 142] | < 100 | 20 to 50 |
|  |  | Cn1cc2c(n1)-c1cc(Cl)ccc1-n1cnc(-c3noc(C(C)(C)C)n3)c1C2 [Compound 143] | < 100 | 5 to 20 |
|  |  | Cn1cc2c(n1)-c1cc(Cl)ccc1-n1cnc(-c3noc(C(F)(F)F)n3)c1C2 [Compound 144] | < 100 | 20 to 50 |
|  |  | Cn1cc2c(n1)-c1cc(Cl)ccc1-n1cnc(-c3noc(C4CCOC4)n3)c1C2 (stereo not shown) [Compound 145] | < 100 | 5 to 20 |
|  |  | COc1ccc2c(c1)-c1nn(C)cc1Cc1c(-c3noc(C(C)(C)C)n3)ncn1-2 [Compound 146] | < 100 | 5 to 20 |
| < 100 | 5 to 20 | Cc1nc(-c2ncn3c2Cc2cn(C(C)C)nc2-c2cc(Cl)ccc2-3)no1 [Compound 147] |  |  |
| < 100 | 5 to 20 | CC(C)n1cc2c(n1)-c1cc(Cl)ccc1-n1cnc(-c3noc(C(F)(F)F)n3)c1C2 [Compound 148] |  |  |
|  |  | CC(C)n1cc2c(n1)-c1cc(Cl)ccc1-n1cnc(-c3noc(C4CC4)n3)c1C2 [Compound 149] | < 100 | 20 to 50 |
|  |  | CC(C)c1nc(-c2ncn3c2Cc2cn(C(C)C)nc2-c2cc(Cl)ccc2-3)no1 [Compound 150] | < 100 | 20 to 50 |
|  |  | CCn1cc2c(n1)-c1cc(OC)ccc1-n1cnc(-c3nc(C(C)C)no3)c1C2 [Compound 151] | < 100 | 5 to 20 |
| < 100 | 20 to 50 | COCc1nc(-c2ncn3c2Cc2cn(C)nc2-c2cc(OC)ccc2-3)no1 [Compound 153] |  |  |
|  |  | CC(C)n1cc2c(n1)-c1cc(Cl)ccc1-n1cnc(-c3nc(C4CC4)no3)c1C2 [Compound 154] | < 100 | 5 to 20 |
|  |  | COCc1nc(-c2ncn3c2Cc2cn(C)nc2-c2cc(Cl)ccc2-3)no1 [Compound 155] | < 100 | 20 to 50 |
|  |  | CCn1cc2c(n1)-c1cc(OC)ccc1-n1cnc(-c3noc(C(C)C)n3)c1C2 [Compound 156] | < 100 | 20 to 50 |

| Ki (α5β3γ2 GABAA R; [1]) [nM] | activation at 0.1 µM (GABAA R (α5β2γ2); [2]) [%] | SMILES | Ki (α5β3γ2 GABAA R) [nM] | activation at 0.1 µM (GABAA R (α5β2γ2); [3]) [%] |
| --- | --- | --- | --- | --- |
|  |  | CCn1cc2c(n1)-c1cc(OC)ccc1-n1cnc(-c3noc(C4CC4)n3)c1C2 [Compound 157] | < 100 | 20 to 50 |
| < 100 | 5 to 20 | CCn1cc2c(n1)-c1cc(OC)ccc1-n1cnc(-c3noc(C(F)(F)F)n3)c1C2 [Compound 158] |  |  |
|  |  | CCn1cc2c(n1)-c1cc(Cl)ccc1-n1cnc(-c3nc(C)no3)c1C2 [Compound 159] | < 100 | 20 to 50 |
|  |  | Cc1noc(-c2ncn3c2Cc2cn(C(C)C)nc2-c2cc(Cl)ccc2-3)n1 [Compound 160] | < 100 | 20 to 50 |
|  |  | Cc1noc(-c2ncn3c2Cc2cn(CC4CCOC4)nc2-c2cc(Cl)ccc2-3)n1 (stereo not shown) [Compound 161] | < 100 | 20 to 50 |
|  |  | Clc1ccc2c(c1)-c1c(cnn1CC1CC1)Cc1c(-c3nc(C4CC4)no3)ncn1-2 [Compound 162] | < 100 | 5 to 20 |
|  |  | Cn1cc2c(n1)-c1cc(Cl)ccc1-n1cnc(-c3cnn(Cc4ccccc4)c3)c1C2 [Compound 163] | < 100 | 5 to 20 |
|  |  | CC(C)n1cc2c(n1)-c1cc(Cl)ccc1-n1cnc(-c3ncco3)c1C2 [Compound 167] | < 100 | 5 to 20 |
|  |  | COc1ccc2c(c1)-c1nn(CC3CCOC3)cc1Cc1c(-c3nc(C4CC4)no3)ncn1-2 (stereo not shown) [Compound 168] | < 100 | 20 to 50 |
| < 100 | 5 to 20 | COc1ccc2c(c1)-c1nn(C(C)C)cc1Cc1c(-c3nc(C4CC4)no3)ncn1-2 [Compound 169] |  |  |
|  |  | COCc1noc(-c2ncn3c2Cc2cn(C)nc2-c2cc(OC)ccc2-3)n1 [Compound 170] | < 100 | 20 to 50 |
|  |  | COc1ccc2c(c1)-c1nn(CC3CC3)cc1Cc1c(-c3nc(C4CC4)no3)ncn1-2 [Compound 171] | < 100 | 5 to 20 |
| < 100 | 5 to 20 | Clc1ccc2c(c1)-c1nn(CC3CC3)cc1Cc1c(-c3ncco3)ncn1-2 [Compound 172] |  |  |
|  |  | COc1ccc(Cn2ncc3c2-c2cc(OC)ccc2-n2cnc(-c4noc(COCC(F)(F)F)n4)c2C3)cc1 [Compound 173] | < 100 | 5 to 20 |
|  |  | COc1ccc2c(c1)-c1[nH]ncc1Cc1c(-c3noc(COCC(F)(F)F)n3)ncn1-2 [Compound 174] | < 100 | 20 to 50 |
| < 100 | 20 to 50 | CCn1cc2c(n1)-c1cc(Cl)ccc1-n1cnc(-c3noc(C(C)C)n3)c1C2 [Compound 175] |  |  |
| < 100 | 5 to 20 | CCn1cc2c(n1)-c1cc(Cl)ccc1-n1cnc(-c3noc(C4CC4)n3)c1C2 [Compound 176] |  |  |
|  |  | CCn1cc2c(n1)-c1cc(Cl)ccc1-n1cnc(C3=N[C@H](C(C)C)CO3)c1C2 [Compound 177] | < 100 | 5 to 20 |
|  |  | CCn1cc2c(n1)-c1cc(Cl)ccc1-n1cnc(C3=N[C@H](c4ccccc4)CO3)c1C2 [Compound 178] | < 100 | 20 to 50 |
|  |  | CCn1cc2c(n1)-c1cc(Cl)ccc1-n1cnc(C3=N[C@@H](c4ccccc4)CO3)c1C2 [Compound 179] | < 100 | 20 to 50 |
| < 100 | > 50 | COc1ccc2c(c1)-c1n[nH]cc1Cc1c(-c3noc(C(C)(C)OC)n3)ncn1-2 [Compound 181] |  |  |
|  |  | COc1ccc2c(c1)-c1nn(C)cc1Cc1c(-c3noc(COCC(F)(F)F)n3)ncn1-2 [Compound 183] | < 100 | > 50 |
| < 100 | > 50 | COc1ccc2c(c1)-c1c(cnn1C)Cc1c(-c3noc(COCC(F)(F)F)n3)ncn1-2 [Compound 184] |  |  |
